Experimental data from US3955959A, “Herbicide for use in transplanted rice” (priority 1974, dated 1976).
Several values for one entry are separate records, joined by “and”; a condition that tells them apart may be missing. Identical values can stand only once.

Key:
[1] = test system: Broadleaf: Mv, Sz (Monochoria vaginalis, Sphenoclea zeylanica); test: Example 3 field test on Dapog rice, weed control, Munoz, Philippines; assay type: in vivo, Monochoria vaginalis and Sphenoclea zeylanica; conditions: obs. 42 DAT
Excerpt: Treatments were replicated four times.

[2] = test system: Dapog transplanted rice; test: Example 3 field test, rice yield; assay type: in vivo
Experimental: (§1) In the tests described in the tables below, the herbicides were formulated and used in granular form in conventional manner. […] The commercial herbicide used was a granular product having 5% active ingredient.
(§2) In the field tests of the herbicide of this invention with transplanted rice, the rice seedlings were grown in conventional manner, by seeding the rice in a typical seedbed of sandy loam to clay soil of the country wherein the test was conducted. For laboratory and greenhouse work the seedlings were obtained by seeding rice in a mixture of soil, e.g., Ray silt loam, and peat in wood flats. For purposes of testing the herbicides on younger rice seedlings (infant or Dapog) the rice was usually allowed to grow for 6-15 days before lifting for transplanting. Older (ordinary) rice plants were usually grown for a period of about 2-3 weeks, or as much as about 7 weeks before lifting. Since the period of growth is dependent upon climatic conditions, a better measure of when to transplant the rice seedling is the leaf stage of growth; for infant or Dapog rice the seedling is lifted at the 1.5-2 leaf stage of growth, and for ordinary seedlings at the 2.5-5 leaf stage. The seedlings were then transplanted to the test plots for evaluation of the herbicide for injury against weed species present with the transplanted rice. The herbicides were then applied to the growth medium of the weeds and transplant rice, either preemergent or postemergent with respect to the weeds and postemergent with respect to the transplanted rice. Application times are designated in the tables as "DAT", meaning "days after transplant". Application rates given in the tables refer to the amount of active ingredient used.
Eleven (11) day-old Dapog seedlings were transplanted and treated at 5 DAT and 14 DAT with Herbicides A and B. The plots were overseeded with Echinochloa crusgalli seeds at 2 kgs/ha prior to transplanting. Treatments were replicated four times.

[3] = test system: pigweed, annual morning glory, smartweed, cocklebur, Italian ryegrass, crop rye, sorghum, quack grass and nutsedge; test: Example 9 soil life bioassay, greenhouse; assay type: in vivo; conditions: for Soil Longevity: 5 lbs/Ac (5.605 kg/ha), Ray silt loam
Experimental: In this example, additional tests were run to compare the relative soil life of Herbicides A and B under greenhouse conditions.
In the soil life tests, a standardized procedure involving a series of bioassay periods, or cycles, was used. In the procedure, an arbitrary, selected mixture of four grasses, four broadleaf weeds and a sedge were seeded into Ray silt loam soil previously prepared and treated with the herbicide under test and periodically watered by sub-irrigation. After a six-week bioassay period, (i.e., the first cycle), the plants were evaluated visually for herbicidal activity. That soil in which at least 75% of three or more grass and/or broadleaf species or of the sedge alone were controlled at the end of the cycle, was advanced to a second cycle, or six-week bioassay period. The second cycle involved the same procedure as the first cycle, except that additionally, the equivalent of 50 lbs/ac (56.05 Kgs/ha) of nitrogen was mixed into the cover layer of the soil which was reseeded with the mixture of plants mentioned earlier. The plants were evaluated for herbicidal activity at the end of this six-week period and, again, the soil in which at least 75% of the grasses or broadleaf species or of the sedge alone were controlled was advanced to a third cycle. The foregoing procedure was repeated until herbicidal activity fell below that required for initiation of a new cycle.
For purposes of the soil life tests, the following spectrum of plants were used as indicators: pigweed, annual morning glory, smartweed, cocklebur, Italian ryegrass, crop rye, sorghum, quack grass and nutsedge.

[4] = test system: ordinary transplanted rice; test: Example 4 field test, rice yield; assay type: in vivo, rice (Fortuna variety)
Experimental: as §1, §2
In this example comparative field tests were conducted with Herbicides A and B on ordinary transplanted rice at Munoz, Philippines.
Twenty-one (21) day-old ordinary wet bed seedlings of the Fortuna variety were transplanted to field plots and Herbicides A and B applied at 5 DAT and 14 DAT. The field plots were overseeded with barnyardgrass (E. crusgalli) at 2 kgs/ha. Treatments were replicated four times.

[5] = test system: Ec (Echinochloa crusgalli); test: Example 5 field test, weed control, JAAPR, Japan; assay type: in vivo
Experimental: (§3) The rice seedlings were grown to the 1.7 leaf stage for infant seedlings and to the 5.5 leaf stage for ordinary seedlings. Two days after puddling the soil in which the seedlings were to be transplanted, both infant and ordinary seedlings were transplanted into plots 8.5 m^2.
(§4) The weed symbol "Obw" represents "other broadleaf weeds" of unspecified identity.

[6] = test system: Monochoria vaginalis; test: Example 2 field test, weed control, Chia Yi, Taiwan; assay type: in vivo; conditions: obs. 63 DAT
Experimental: In the field tests of the herbicide of this invention with transplanted rice, the rice seedlings were grown in conventional manner, by seeding the rice in a typical seedbed of sandy loam to clay soil of the country wherein the test was conducted. For laboratory and greenhouse work the seedlings were obtained by seeding rice in a mixture of soil, e.g., Ray silt loam, and peat in wood flats. For purposes of testing the herbicides on younger rice seedlings (infant or Dapog) the rice was usually allowed to grow for 6-15 days before lifting for transplanting. Older (ordinary) rice plants were usually grown for a period of about 2-3 weeks, or as much as about 7 weeks before lifting. Since the period of growth is dependent upon climatic conditions, a better measure of when to transplant the rice seedling is the leaf stage of growth; for infant or Dapog rice the seedling is lifted at the 1.5-2 leaf stage of growth, and for ordinary seedlings at the 2.5-5 leaf stage. The seedlings were then transplanted to the test plots for evaluation of the herbicide for injury against weed species present with the transplanted rice. The herbicides were then applied to the growth medium of the weeds and transplant rice, either preemergent or postemergent with respect to the weeds and postemergent with respect to the transplanted rice. […] Application rates given in the tables refer to the amount of active ingredient used.
Rice seedlings (ordinary) of Tainan No. 5 variety (japonica) were transplanted at 19 days of growth. Granular formulations of Herbicides A and B were applied at the 1 leaf stage of grass weed (4 DAT) and 2.5 leaf stage of grass weed (10 DAT).

[7] = test system: weeds in upland direct-seeded rice; test: Example 7 overall; assay type: in vivo
Experimental: In a further comparative study of the preemergence activity of Herbicides A and B, a variety of weeds and upland direct-seeded rice were tested under greenhouse conditions. The present invention is not concerned with the use of Herbicide A in direct-seeded rice. The primary purpose of the experimental work in this example is to compare relative herbicidal activity of Herbicides A and B against the weeds shown in Table 7; most of these weeds were not available for tests with transplanted rice. Although the relative selectivity of these herbicides in upland rice is also evident, that aspect of the tests is more or less incidental to the purpose of this example.
In this example, rice seeds and seeds of the weeds shown in Table 7 were sown in Ray silt loam soil at a depth of 0.5 inch (1.27 cm) in containers for the soil in a greenhouse. Herbicides A and B were applied to the surface of the soil at a spray volume equivalent to 20 gals/acre (187.1 liters/hectare), followed by 0.5 in (1.27 cm) of overhead irrigation. Temperature and relative humidity in the greenhouse were on the order of 85°F (29°C) and 75%, respectively. Observations were made at 21-28 days after seeding. […]

[8] = test system: Ea (Eleocharis acicularis); test: Example 5 field test, weed control, JAAPR, Japan; assay type: in vivo
Experimental: as §3, §4

[9] = 1.5 kg/ha, 7 DAT, infant seedlings
[10] = 1.5 kg/ha, 7 DAT, ordinary seedlings
[11] = 1.0 kg/ha, 15 DAT, infant seedlings
[12] = 1.0 kg/ha, 15 DAT, ordinary seedlings
[13] = .25 kg/ha, 2 DAT, infant seedlings
[14] = .25 kg/ha, 2 DAT, ordinary seedlings
[15] = .5 kg/ha, 7 DAT, infant seedlings
[16] = .5 kg/ha, 7 DAT, ordinary seedlings

Q: What does the source list for `CCCCOCN(C(=O)CCl)c1c(CC)cccc1CC` [Herbicide B, n-(butoxymethyl)-2',6'-diethyl-2-chloroacetanilide, reference compound]?
A: % Weed control, Broadleaf (Mv,Sz) ([1]; 5 DAT, 1.0 kg/ha): 100%; % Weed control, Broadleaf (Mv,Sz) ([1]; 5 DAT, 1.5 kg/ha): 100%; % Weed control, Broadleaf (Mv,Sz) ([1]; 5 DAT, 3.0 kg/ha): 100%; % Weed control, Broadleaf (Mv,Sz) ([1]; 14 DAT, 1.0 kg/ha): 0%; % Weed control, Broadleaf (Mv,Sz) ([1]; 14 DAT, 1.5 kg/ha): 0%; % Weed control, Broadleaf (Mv,Sz) ([1]; 14 DAT, 3.0 kg/ha): 70%; yield vs control ([2]; 1 kg/ha, 5 DAT): significantly higher than the control; Yield (% of H.W. Check) ([2]; 5 DAT, 1.0 kg/ha): 142%; Yield (% of H.W. Check) ([2]; 5 DAT, 1.5 kg/ha): 107%; Yield (% of H.W. Check) ([2]; 5 DAT, 3.0 kg/ha): 101%; Yield (% of H.W. Check) ([2]; 14 DAT, 1.0 kg/ha): 83%; Yield (% of H.W. Check) ([2]; 14 DAT, 1.5 kg/ha): 89%; Yield (% of H.W. Check) ([2]; 14 DAT, 3.0 kg/ha): 93%; Soil Longevity [3]: 20 Weeks; yield vs hand weeded check ([4]; 1.0 kg/ha, 14 DAT): statistically significantly lower than the hand weeded check; Yield (% of H.W. Check) ([4]; 5 DAT, 1.0 kg/ha): 115%; Yield (% of H.W. Check) ([4]; 5 DAT, 1.5 kg/ha): 110%; Yield (% of H.W. Check) ([4]; 5 DAT, 3.0 kg/ha): 100%; Yield (% of H.W. Check) ([4]; 14 DAT, 1.0 kg/ha): 82%; Yield (% of H.W. Check) ([4]; 14 DAT, 1.5 kg/ha): 86%; Yield (% of H.W. Check) ([4]; 14 DAT, 3.0 kg/ha): 94%; control of Ec in words ([5]; 1.5 kg/ha, 7 DAT): substantially complete control; % Weed Control (Ec) [5, 9]: 99%; % Weed Control (Ec) [5, 10]: 81%; % Weed Control (Monochoria Vaginalis) ([6]; 4 DAT, 1.0 kg/ha): 77%; % Weed Control (Monochoria Vaginalis) ([6]; 4 DAT, 1.5 kg/ha): 94%; % Weed Control (Monochoria Vaginalis) ([6]; 4 DAT, 3.0 kg/ha): 99%; % Weed Control (Monochoria Vaginalis) ([6]; 10 DAT, 1.0 kg/ha): 65%; % Weed Control (Monochoria Vaginalis) ([6]; 10 DAT, 1.5 kg/ha): 78%; % Weed Control (Monochoria Vaginalis) ([6]; 10 DAT, 3.0 kg/ha): 89%; selectivity, A vs B, upland direct-seeded rice ([7]; particular spectrum of weeds): slightly more selective; control of Ea in words ([8]; 1.5 kg/ha, 7 DAT): complete control; % Weed Control (Ea) [8, 9]: 100%; % Weed Control (Ea) [8, 10]: 93%

Q: With `CCCCOCN(C(=O)CCl)c1c(C)cccc1C(C)(C)C` [Herbicide A, n-(butoxymethyl)-6'-tert-butyl-2-chloro-o-acetotoluidide] as the molecule, how does the “% Weed control, Broadleaf (Mv,Sz)” value ([1]; 5 DAT, 1.0 kg/ha) read?
A: Its value is 100%.

Q: And the “% Weed control, Broadleaf (Mv,Sz)” value ([1]; 5 DAT, 2.0 kg/ha)?
A: The value was 100%.

Q: What about the “% Weed control, Broadleaf (Mv,Sz)” value ([1]; 5 DAT, .25 kg/ha) of the same molecule?
A: Its value is 100%.

Q: And the “% Weed control, Broadleaf (Mv,Sz)” value ([1]; 5 DAT, .5 kg/ha)?
A: The value was 100%.

Q: And the “% Weed control, Broadleaf (Mv,Sz)” value ([1]; 14 DAT, 1.0 kg/ha)?
A: The value was 60%.

Q: What about the “% Weed control, Broadleaf (Mv,Sz)” value ([1]; 14 DAT, 2.0 kg/ha) of the same molecule?
A: Its value is 60%.

Q: What about the “% Weed control, Broadleaf (Mv,Sz)” value ([1]; 14 DAT, .25 kg/ha) of the same molecule?
A: Its value is 0%.

Q: And the “% Weed control, Broadleaf (Mv,Sz)” value ([1]; 14 DAT, .5 kg/ha)?
A: Its value is 60%.

Q: What about the “Yield (% of H.W. Check)” value ([2]; in vivo) of the same molecule?
A: Its value is 182% and 177% and 139% and 104% and 93% and 98% and 113%.

Q: What about the “rice yield vs hand weeded check” value ([2]; in vivo) of the same molecule?
A: The value was “statistically similar to the hand weeded check”.

Q: And the yield in words ([2]; in vivo)?
A: Its yield in words is “outstanding”.

Q: What about the “Soil Longevity” value [3] of the same molecule?
A: Its value is 29 Weeks.

Q: And the “residual preemergence activity longer than Herbicide B” value ([3]; equal rates, 5 lbs/Ac)?
A: The value was “about 50%”.

Q: And the “Yield (% of H.W. Check)” value ([4]; in vivo)?
A: Its value is 129% and 136% and 123% and 101% and 90% and 97% and 100%.

Q: And the “rice yield vs hand weeded check” value ([4]; in vivo)?
A: Its value is “only slightly lower than the hand weeded check”.

Q: What about the “rice yield vs hand weeded control” value ([4]; in vivo) of the same molecule?
A: Its value is “slightly more than the hand weeded control”.

Q: What about the “% Weed Control (Ec)” value [5, 11] of the same molecule?
A: Its value is 100%.

Q: What about the “% Weed Control (Ec)” value [5, 12] of the same molecule?
A: Its value is 100%.

Q: And the “% Weed Control (Ec)” value [5, 13]?
A: The value was 100%.

Q: What about the “% Weed Control (Ec)” value [5, 14] of the same molecule?
A: The value was 100%.

Q: What about the “% Weed Control (Ec)” value [5, 15] of the same molecule?
A: Its value is 100%.

Q: And the “% Weed Control (Ec)” value [5, 16]?
A: Its value is 100%.

Q: And the “control of Ec in words” value ([5]; both plots, all rates)?
A: The value was “controlled”.

Q: What about the “% Weed Control (Monochoria Vaginalis)” value ([6]; 4 DAT, 1.0 kg/ha) of the same molecule?
A: Its value is 100%.

Q: What about the “% Weed Control (Monochoria Vaginalis)” value ([6]; 4 DAT, 2.0 kg/ha) of the same molecule?
A: The value was 100%.

Q: And the “% Weed Control (Monochoria Vaginalis)” value ([6]; 4 DAT, .25 kg/ha)?
A: Its value is 80%.

Q: And the “% Weed Control (Monochoria Vaginalis)” value ([6]; 4 DAT, .5 kg/ha)?
A: Its value is 99%.

Q: What about the “% Weed Control (Monochoria Vaginalis)” value ([6]; 10 DAT, 1.0 kg/ha) of the same molecule?
A: The value was 99%.

Q: What about the “% Weed Control (Monochoria Vaginalis)” value ([6]; 10 DAT, 2.0 kg/ha) of the same molecule?
A: Its value is 99%.

Q: And the “% Weed Control (Monochoria Vaginalis)” value ([6]; 10 DAT, .25 kg/ha)?
A: The value was 35%.

Q: What about the “% Weed Control (Monochoria Vaginalis)” value ([6]; 10 DAT, .5 kg/ha) of the same molecule?
A: The value was 87%.

Q: What about the “activity vs Herbicide B in direct-seeded rice” value ([7]; direct-seeded rice cultures) of the same molecule?
A: The value was “significantly more active”.

Q: And the “% Weed Control (Ea)” value [8, 11]?
A: The value was 89%.

Q: What about the “% Weed Control (Ea)” value [8, 12] of the same molecule?
A: The value was 90%.

Q: And the “% Weed Control (Ea)” value [8, 13]?
A: Its value is 87%.

Q: What about the “% Weed Control (Ea)” value [8, 14] of the same molecule?
A: Its value is 79%.

Q: And the “% Weed Control (Ea)” value [8, 15]?
A: The value was 89%.

Q: And the “% Weed Control (Ea)” value [8, 16]?
A: The value was 98%.
